A short description of this assay: Neuroprotective activity against glutamate-induced neurotoxicity in Sprague-Dawley rat cortical cells at 10 uM after 24 hrs by MTT assay relative to control. It is filed as functional. On the technique in general: Tetrazolium dyes change colour on reduction, which living cells bring about.

For `O=c1cc(/C=C/c2ccccc2)oc2cccc(O)c12`, the Activity was -11.3%.
Turning to `O=c1cc(CCc2ccccc2)oc2cccc(O)c12`, the Activity was 67%.
In the case of `O=c1cc(CCc2ccccc2O)oc2cccc(O)c12`, the Activity is 63.6%.
On to `C[C@]12N[C@H](Cc3ccccc31)c1ccccc12.O=C(O)/C=C\C(=O)O` [DIZOCILPINE MALEATE], for which the Activity amounted to 82.2%.
